The record followed here is patent US20260266798A1, “SYSTEMS AND METHODS REGARDING PEAK EXPLORATION AND ARTIFICIAL TISSUE RESPONSE INCLUDING FOR CONTRACTION TYPE CLASSIFICATION OF ENGINEERED TISSUE” (VALO HEALTH, INC., priority 2023, published 2026).

In this assay the test system is artificial tissue. Kind of assay: Contraction type classification (single/double) of contractile force waveforms of artificial tissue under baseline and perturbed conditions (FIG. 27). In kind it is cell-based. As to conditions: functional response = contractile force; first and second (increasing) dose of isoproterenol vs reference/control conditions; shown most clearly at the second dose. The text has this:
The waveforms comprise functional responses (contractile force) of an artificial tissue under baseline conditions and two perturbed conditions. Examples of perturbed conditions are treatment of a tissue with a drug or compound, different cell lines, different disease states, physical perturbation of the artificial tissue, changes made to the platform or bioreactor containing the artificial tissue, and the like. The baseline waveform 2702, the first perturbed waveform 2704, and the second perturbed waveform 2706 are associated with a baseline classification vector 2708, a first perturbed classification vector 2710, and a second perturbed classification vector 2712 respectively. […]
The classification vectors (e.g., the baseline classification vector 2708) are obtained by extracting a plurality of functional response waveforms from each waveform (as described in more detail below in relation to FIG. 33) and then determining a contraction type for each functional response waveform using a prediction model (e.g., the prediction model 600 described above in relation to FIGS. 6 and 7). […] In contrast, the third classification value 2720 is a double contraction type (as indicated by the dark gray shading) because the associated functional response waveform 2724 is determined by the prediction model to contain a double contraction. […]

For the compound `CC(C)NCC(O)c1ccc(O)c(O)c1` (stereo not shown) [isoproterenol], the “contraction type classification vector of the perturbed waveforms compared to the baseline classification vector” value was “induces regular double contractions of the artificial tissue”.
